Assay results from US20260365692A1, “COMPOSITIONS COMPRISING PROTEINS DISSOLVED IN FLUORINATED SOLVENTS, AND METHODS OF MAKING AND USING THE SAME” (priority 2022, published 2026).

Experiments:
human hemoglobin (Hb) = human hemoglobin (Hb) (Homo sapiens, UniProt P68871+P69905); assay: Circular dichroism with PFNA, Hb
Source text: (§1) FIGS. 14A-14L depict circular dichroism spectra of Hb (FIG. 14A), GFP (FIG. 14B), BSA (FIG. 14C), β-Gal (FIG. 14D), rabbit serum IgG (FIG. 14E), transferrin (FIG. 14F), and urease (FIG. 14G) in the absence (black line) or presence (dashed lines) of PFNA. Increasing dash sequence indicated higher concentration of PFNA. FIG. 14H: Change in molar ellipticity at 216 nm (Δθ216) of PFNA-treated proteins, relative to native controls, as a function of increasing ligand concentration. FIG. 14I: Percentage change in secondary structural motifs of Hb, β-Gal and IgG between the native protein and 1 mM PFNA treated samples. β-sheet structures were further differentiated into parallel and antiparallel conformations. Hb, β-Gal and IgG were prioritized for analysis based on their significant spectral shift in the presence of 1 mM PFNA. FIGS. 14J-14L: Sensograms for BSA (FIG. 14J), β-gal (FIG. 14K), and IgG (FIG. 14L) showing relative response (R.U.) at 10, 25, 50, 75, and 100 μM.
To explore PFNA-mediated changes in protein structure, dose-response circular dichroism (CD) studies were performed (FIG. 14A-14G). […] Remarkably, these structural changes endured even at sub-stoichiometric PFNA:protein ratios (see 0.001 mM PFNA in […]; protein concentration was constant at 0.01 mM).

BSA [1] = molecular target: T1, BSA (Bos taurus, UniProt P02769); assay: Isothermal titration calorimetry, BSA; format: binding, bovine
Source text: (§2) To test this assertion, PFNA binding to three exemplary proteins, BSA, β-Gal and IgG, was studied via isothermal titration calorimetry (ITC) and surface plasmon resonance (SPR) techniques. […] SPR analysis yielded similar results, with sensorgrams (FIGS. 14J-14L) that diverged from a simple 1:1 ligand-protein model. […] Similar phenomenon may explain the negative signals of the SPR data and further support the ability of PFNA to modulate the conformational plasticity of adsorbed proteins.

IgG = assay: Isothermal titration calorimetry, IgG; format: binding, rabbit
Source text: as §2

BSA [2] = molecular target: T1, BSA; assay: Surface plasmon resonance, BSA; format: binding, bovine; conditions: after reference correction
Source text: as §1
To test this assertion, PFNA binding to three exemplary proteins, BSA, β-Gal and IgG, was studied via isothermal titration calorimetry (ITC) and surface plasmon resonance (SPR) techniques. […] SPR analysis yielded similar results, with sensorgrams (FIGS. 14J-14L) that diverged from a simple 1:1 ligand-protein model. […]

TFN = TFN (Bos taurus, UniProt Q29443); assay: 19F NMR of PFNA with TFN; format: binding, bovine
Source text: This further supported the conclusion that, like TFE, adsorption of PFNA to protein surfaces aligned the fluorinated tail parallel to the solvent accessible exterior, with further stabilization via F . . . H bonding with surface N—H groups (FIG. 12, FIGS. 12A-12E, and FIG. 13). This ultimately generated the fluorine rich coating that altered water accessibility and promoted secondary structure.

[3] = Protein activity after elevated temperature exposure (Example 4); format: physicochemical
Experimental: A group of enzyme proteins, β-Gal and Trypsin was chosen for this study. β-Gal and Trypsin were diluted in PBS or dispersed in PFOc at 1 μM and 10 μM, respectively. Next, a subset of samples was subjected to elevated temperature condition (90 °C) well beyond their native denaturation temperature for 30 minutes. After that, samples were allowed to cool down to room temperature before retrieval. For PFOc samples, proteins were extracted into PBS before performing the ensuing assays. To determine the enzymatic activity, an equal volume of protein samples was added to their substrates dissolved in PBS (4 mg/mL ONPG for β-Gal or 1 mg/mL BAEE for Trypsin). After incubation, ONPG and BAEE substrate conversions were measured by taking absorbance using a microplate reader at 420 nm or 400 nm, respectively. In case of intrinsic fluorescence, GFP was similarly prepared, and heat treated. After GFP samples were retrieved, fluorescent intensity was taken at λex=490 nm, λem=520 nm. The change in protein activity was presented by normalizing to spectrometric readings of each protein dissolved in PBS without being subjected to heat (room temperature). […] This supports the assertion that the fluorous coating and solvent environments, together, serve to constrain the conformational flexibility of the dispersed protein and, as a result, increase its melting temperature.

[4] = Temperature-dependent circular dichroism of proteins in PFOc or PBS (Example 4); format: physicochemical; conditions: dispersed in PFOc using PD-7, heated up to 85 °C
Experimental: FIGS. 39A-39B depict temperature-dependent CD spectra of the indicated test protein solubilized in PFOc using the PD-7 dispersant, or PBS as a control.
FIG. 40 depicts the change in minimum CD ellipticity over the 40 °C-85 °C temperature interval for the indicated protein dissolved in either PBS or PFOc.
To determine structural integrity of proteins in aqueous and fluorinated environments at elevated temperatures, circular dichroism (CD) was used to probe secondary structure. Proteins were either diluted in PBS (aqueous) or dispersed in PFOc at the same designated concentrations according to protocol described above. For aqueous samples, dissolved proteins were heated between 40 °C to 90 °C, and their corresponding CD spectra at each temperature was measured. For PFOc samples, each of the PFOc dispersed proteins were subjected to heat treatment at 40, 55, 70, and 85 °C for 15 minutes. After that, dispersed proteins were eluted into PBS before having their CD spectra taken. Data is shown by representative ellipticity at each temperature depicted by distinct colors.

Sequence of human hemoglobin (Hb) (P69905 whole entry): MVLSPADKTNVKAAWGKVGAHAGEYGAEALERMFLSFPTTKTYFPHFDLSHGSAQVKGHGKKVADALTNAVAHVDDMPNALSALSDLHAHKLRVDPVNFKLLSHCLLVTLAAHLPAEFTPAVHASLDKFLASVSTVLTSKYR
Sequence of human hemoglobin (Hb) (P68871 whole entry): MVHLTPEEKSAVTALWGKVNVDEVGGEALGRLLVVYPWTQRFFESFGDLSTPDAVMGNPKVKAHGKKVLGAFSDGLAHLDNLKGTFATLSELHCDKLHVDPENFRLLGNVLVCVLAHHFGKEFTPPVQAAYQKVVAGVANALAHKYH
T1 sequence (P02769 25-607): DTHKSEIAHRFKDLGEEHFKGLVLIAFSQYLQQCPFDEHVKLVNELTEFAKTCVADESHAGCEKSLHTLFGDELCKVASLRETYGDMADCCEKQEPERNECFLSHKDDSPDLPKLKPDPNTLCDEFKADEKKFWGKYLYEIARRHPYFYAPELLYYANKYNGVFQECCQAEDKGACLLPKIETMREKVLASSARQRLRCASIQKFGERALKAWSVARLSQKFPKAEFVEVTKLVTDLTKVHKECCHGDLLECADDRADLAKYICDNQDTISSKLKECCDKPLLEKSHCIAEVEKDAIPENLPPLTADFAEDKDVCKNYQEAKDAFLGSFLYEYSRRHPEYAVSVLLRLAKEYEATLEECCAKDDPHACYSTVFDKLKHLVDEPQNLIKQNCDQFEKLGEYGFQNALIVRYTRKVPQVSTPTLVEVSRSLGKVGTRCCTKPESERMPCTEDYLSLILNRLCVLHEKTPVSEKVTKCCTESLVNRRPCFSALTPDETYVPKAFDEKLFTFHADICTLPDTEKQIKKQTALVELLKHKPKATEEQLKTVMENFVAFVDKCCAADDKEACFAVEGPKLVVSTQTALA
Sequence of TFN (Q29443 20-704): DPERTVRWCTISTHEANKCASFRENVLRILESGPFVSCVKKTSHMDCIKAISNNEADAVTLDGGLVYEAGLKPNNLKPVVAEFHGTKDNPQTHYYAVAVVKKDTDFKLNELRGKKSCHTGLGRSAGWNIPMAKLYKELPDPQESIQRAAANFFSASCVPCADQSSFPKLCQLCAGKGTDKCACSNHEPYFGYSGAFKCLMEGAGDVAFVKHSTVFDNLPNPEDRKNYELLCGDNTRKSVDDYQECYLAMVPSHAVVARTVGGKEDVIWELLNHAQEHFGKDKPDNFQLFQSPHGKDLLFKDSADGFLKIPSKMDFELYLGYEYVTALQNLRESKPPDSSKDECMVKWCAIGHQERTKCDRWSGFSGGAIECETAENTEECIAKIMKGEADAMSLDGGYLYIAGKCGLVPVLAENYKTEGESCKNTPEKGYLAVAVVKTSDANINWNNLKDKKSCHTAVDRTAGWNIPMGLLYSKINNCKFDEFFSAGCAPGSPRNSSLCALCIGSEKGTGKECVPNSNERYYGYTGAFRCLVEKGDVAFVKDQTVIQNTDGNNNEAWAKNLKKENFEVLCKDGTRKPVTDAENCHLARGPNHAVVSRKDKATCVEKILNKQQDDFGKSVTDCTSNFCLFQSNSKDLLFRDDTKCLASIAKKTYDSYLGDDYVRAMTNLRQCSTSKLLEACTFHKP

Compound: O=C(O)C(F)(F)C(F)(F)C(F)(F)C(F)(F)C(F)(F)C(F)(F)C(F)(F)C(F)(F)F [Compound 7, perfluoronanonic acid]
- CD structural change, Hb (human hemoglobin (Hb); 0.001-0.1 mM PFNA): induced non-native α-helical structure
- CD structural change, Hb (human hemoglobin (Hb); 1 mM PFNA): slight loss of signal
- evolution of heat (ITC) (BSA [1]): no significant evolution of heat
- evolution of heat (ITC) (IgG): no significant evolution of heat
- SPR response (BSA [2]): negative responses
- 19F NMR peak change upon interaction (TFN): broadening of PFNA's peaks
- retention of bioactivity / function at elevated temperature ([3]; proteins dispersed into fluorous solvent using the dispersant, up to 90 °C): structured and functional at temperatures as high as 90 °C

Compound: β-Gal: β-Galactosidase (β-Gal), dissolved in PBS/saline or dispersed in PFOc
- change in secondary structure [4]: minimal changes in secondary structure
- change in activity after heating ([3]; PFOc dispersed, 90 °C for 30 minutes): no statistically significant change in activity
- loss of bioactivity after heating ([3]; saline, 90 °C for 30 minutes): > 90%
